Test results as given in paper PMC5132298 (PLoS ONE, 2016).
In brackets after ≈: the same amount, converted by molar mass. Like-named read-outs stand apart in the source and are kept apart here.

How the values were obtained:
[1] = target: T1, ScErg11p6×His (S. cerevisiae lanosterol 14α-demethylase) (Saccharomyces cerevisiae, UniProt P10614); assay: Type II binding (difference spectra) to affinity purified ScErg11p6×His; conditions: for [Azole]0.5: azole concentration giving half ΔAmax, 1 µM ScErg11p6×His; for type of binding (difference spectra): azole up to 2 μM, 1 μM ScErg11p6×His; for Induced spectral shift on ligand binding Wavelength: Soret peak, (-) indicates no significant change in Soret peak wavelength; for mode of inhibition: ScErg11p6×His
T1 construct: Crystal structures of the full length S. cerevisiae lanosterol 14α-demethylase (ScErg11p6×His); 6×His (hexahistidine); made in house; host or cells: Saccharomyces cerevisiae (AD3Δ overexpression strain, native ERG11 deleted)
Experimental: Type II azole binding is characterised by a shift of the Soret peak from 417 nm to 421–424 nm in ScErg11p6×His and other cytochrome P450s. The type II difference spectra were used to detect and quantitate binding of the inhibitors S-TBZ, R-TBZ, S-PTZ, R-PTZ, S-DPZ, R-DPZ, S-oxo-PTZ and R-oxo-PTZ, FQZ, and PRZ using Ni-NTA affinity purified wild type ScErg11p6×His preparations at 1 μM. Spectral shifts, [Azole]0.5 values, Hill coefficients as well as Type II difference spectra binding curves are shown in S3 Table (selected spectra shown in S2 Fig) and Fig 6, respectively.
Samples of Ni-NTA-agarose affinity purified ScErg11p6×His were eluted with 40 mM histidine instead of imidazole as described by Warrilow et al.. Samples were washed free of the histidine and concentrated by centrifugal filtration using a 50 kDa molecular-weight cut-off Amicon Ultra-4 centrifugal filter (Millipore) to give protein with a Soret peak at 417 nm. Carbon monoxide binding was used to determine the concentration of functional cytochrome P450 for drug binding studies as described previously based on the protocol described by Guengerich et al. Saturation curves for the binding of type II ligands were determined by obtaining difference spectra for functional enzyme at 1 μM as described previously. […] All calculations were carried out using GraphPad Prism 6 Software (GraphPad Prism, San Diego, CA). [Azole]0.5 values were defined as the concentration of the azole drug that gave half ΔAmax.
Hill coefficients and Kd values were obtained by applying the Hill equation as described in Materials and methods. (-) indicates no significant change in Soret peak wavelength on exposure to the ligand. The data presented is a representative set

[2] = tested on: S. cerevisiae AD2Δ host strain (native ERG11 retained); assay: MIC50 broth microdilution, AD2Δ host strain with native ERG11 retained; format: cell-based, Saccharomyces cerevisiae
Experimental: (§1) The susceptibility to azole compounds of S. cerevisiae AD3Δ strains overexpressing Erg11p6×His wild type and Y140F/H, but with the native ERG11 deleted, as well as the host strain (AD2Δ) which retained the wild type ERG11 (S2 Table), were measured as MIC50 values (Table 1). […] PTZ has been reported to be a prodrug for DPZ [27]. […] There was a 3.3 fold (0.28 ± 0.02 μM) and a 4.3 fold (1.2 ± 0.2 μM) reduction in susceptibility to S-PTZ in the Y140F and Y140H mutant strains respectively. There was only a 2 fold reduction in susceptibility to R-PTZ in the Y140H mutant strain with no change seen in the Y140F strain. The PTZ metabolite, S-DPZ produced a 4.6 fold (0.073 ± 0.016 μM) and 3 fold (0.048 ± 0.009 μM) reduction is susceptibility against the Y140F and Y140H mutant strains respectively. […] Again we observed 8.3 fold (3.3 ± 0.7 μM) and 4 fold (1.6 ± 0.5 μM) reduction in susceptibility to FQZ in the Y140F and Y140H mutant strains respectively.
(§2) The susceptibilities of strains overexpressing wild type ScErg11p6×His and ScErg11p6×His Y140F/H to CYP51 inhibitors were measured as MIC50 values using broth microdilution assays as described previously.[21] The MIC50s were defined as the concentration of drug required for 50% growth inhibition compared to no drug controls.

[3] = tested on: S. cerevisiae AD3Δ overexpressing ScErg11p6×His Y140F, native ERG11 deleted; assay: MIC50 broth microdilution, strain overexpressing ScErg11p6×His Y140F; format: cell-based, Saccharomyces cerevisiae; conditions: for fold reduction in susceptibility in Y140F mutant strain: MIC50 Y140F strain versus AD3Δ wild type overexpressing strain
Experimental: as §1, §2

[4] = tested on: S. cerevisiae AD3Δ overexpressing ScErg11p6×His wild type, native ERG11 deleted; assay: MIC50 broth microdilution, AD3Δ strain overexpressing wild type ScErg11p6×His; format: cell-based, Saccharomyces cerevisiae; conditions: for fold more active than the R enantiomer (MIC50): S versus R enantiomer, MIC50 values for AD3Δ strains
Experimental: as §1, §2

[5] = tested on: S. cerevisiae AD3Δ overexpressing ScErg11p6×His Y140H, native ERG11 deleted; assay: MIC50 broth microdilution, strain overexpressing ScErg11p6×His Y140H; format: cell-based, Saccharomyces cerevisiae; conditions: for fold reduction in susceptibility in Y140H mutant strain: MIC50 Y140H strain versus AD3Δ wild type overexpressing strain
Experimental: as §1, §2

[6] = tested on: Alternaria sonali, Fulvia fulva, Botrytis cinerea and Rhizoctonia solani; parameters: method as in PMID 23451708; conditions: 4 fungal pathogens; cited from earlier work
Candida albicans CYP51 = tested on: Candida albicans CYP51; parameters: method as in PMID 23275516; conditions: cited from earlier work
[7] = AD2Δ host, native ERG11 retained, mean ± standard error
[8] = Y140F, ScErg11p6×His Y140F overexpressed from PDR5 locus, native ERG11 deleted, mean ± standard error
[9] = AD3Δ, ScErg11p6×His overexpressed from PDR5 locus, native ERG11 deleted, mean ± standard error
[10] = Y140H, ScErg11p6×His Y140H overexpressed from PDR5 locus, native ERG11 deleted, mean ± standard error

T1 sequence (P10614 whole entry): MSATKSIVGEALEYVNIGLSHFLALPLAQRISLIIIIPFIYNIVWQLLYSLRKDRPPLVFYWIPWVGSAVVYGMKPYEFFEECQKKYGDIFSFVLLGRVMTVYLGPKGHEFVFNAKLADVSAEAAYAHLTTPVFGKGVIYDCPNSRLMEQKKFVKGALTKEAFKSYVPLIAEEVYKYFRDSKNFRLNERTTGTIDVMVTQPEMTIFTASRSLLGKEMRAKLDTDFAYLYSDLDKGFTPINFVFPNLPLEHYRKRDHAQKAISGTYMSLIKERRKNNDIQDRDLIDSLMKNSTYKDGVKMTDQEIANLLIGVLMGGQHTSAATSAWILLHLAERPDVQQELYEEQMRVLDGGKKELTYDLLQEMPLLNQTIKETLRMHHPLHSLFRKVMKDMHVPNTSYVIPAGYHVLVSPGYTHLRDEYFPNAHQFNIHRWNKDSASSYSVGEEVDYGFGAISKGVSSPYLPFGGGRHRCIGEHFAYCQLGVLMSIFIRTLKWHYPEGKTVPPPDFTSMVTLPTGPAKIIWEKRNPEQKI

SMILES | Kd [1] [µM] | [Azole]0.5 [1] [µM] | type of binding (difference spectra) [1] | MIC50 ([2]; Saccharomyces cerevisiae) [µM] | fold reduction in susceptibility in Y140F mutant strain [3] [fold] | MIC50 ([3]; Saccharomyces cerevisiae) [µM] | MIC50 ([4]; Saccharomyces cerevisiae) [µM] | fold reduction in susceptibility in Y140H mutant strain [5] [fold] | MIC50 ([5]; Saccharomyces cerevisiae) [µM] | Induced spectral shift on ligand binding Wavelength [1] | other results
O[C@@](Cc1ccccc1Cl)(Cn1cncn1)C1(Cl)CC1 [S-Prothioconazole-desthio, S-prothioconazole-desthio] | 0.102 ± 0.045 | 0.42 | type II binding | 0.006 ± 0.001 (≈ 0.00187 µg/mL) | 4.6 | 0.073 ± 0.016 (≈ 0.0228 µg/mL) | 0.0157 ± 0.0003 (≈ 0.0049 µg/mL) | 3 | 0.048 ± 0.009 (≈ 0.015 µg/mL) |  | fold more active than the R enantiomer (MIC50) [4]: 200 fold
O=c1[nH]cnn1CC(O)(Cc1ccccc1Cl)C1(Cl)CC1 (stereo not shown) [R-Oxo-prothioconazole, R-oxo-prothioconazole] |  |  | neither type I nor type II binding |  |  |  |  |  |  | 417(-) nm | MIC50 [2, 7]: 75.0 ± 3.0 µM (≈ 24.6 µg/mL); MIC50 [3, 8]: 87 ± 7 µM (≈ 28.6 µg/mL); MIC50 [4, 9]: 80 ± 2 µM (≈ 26.3 µg/mL); MIC50 [5, 10]: 95 ± 5 µM (≈ 31.2 µg/mL)
C[C@@H]1CO[C@@](Cn2cncn2)(c2ccc(Oc3ccc(Cl)cc3)cc2Cl)O1 [2S,4R stereoisomer, 1-(((2S,4R)-2-(2-chloro-4-(4-chlorophenoxy)phenyl)-4-methyl-1,3-dioxolan-2-yl)methyl)-1H-1,2,4-triazole] |  |  |  |  |  |  |  |  |  |  | stereoselective bioactivity among DFC stereoisomers [6]: most active compound
O=c1[nH]cnn1CC(O)(Cc1ccccc1Cl)C1(Cl)CC1 (stereo not shown) [oxo-PTZ, oxo-prothioconazole] |  |  |  |  |  |  |  |  |  | absence of a spectral shift | 
O=c1[nH]cnn1CC(O)(Cc1ccccc1Cl)C1(Cl)CC1 (stereo not shown) [S-Oxo-prothioconazole, S-oxo-prothioconazole] |  |  | neither type I nor type II binding |  |  |  |  |  |  | 417(-) nm | MIC50 [2, 7]: 75.0 ± 0.0 µM (≈ 24.6 µg/mL); MIC50 [3, 8]: 87 ± 7 µM (≈ 28.6 µg/mL); MIC50 [4, 9]: 84 ± 3 µM (≈ 27.6 µg/mL); MIC50 [5, 10]: 97 ± 3 µM (≈ 31.8 µg/mL)
OC(Cc1ccccc1Cl)(Cn1cncn1)C1(Cl)CC1 (stereo not shown) [DPZ, prothioconazole-desthio] |  |  |  |  |  |  |  |  |  | 417 nm to ~421 | mode of inhibition [1]: non-competitive inhibitors; Kd (Candida albicans CYP51; read-out: Kd (tight type II binding), Candida albicans CYP51, type II binding): 0.0364 ± 0.0107 µM
OC(Cc1ccccc1Cl)(Cn1nc[nH]c1=S)C1(Cl)CC1 (stereo not shown) [PTZ, prothioconazole] |  |  | no binding |  |  |  |  |  |  | absence of a spectral shift | Kd (Candida albicans CYP51; Candida albicans CYP51, type I difference spectra, read-out: Kd (weak type I difference spectra)): 6.3 ± 1.5 µM
O[C@](Cc1ccccc1Cl)(Cn1cncn1)C1(Cl)CC1 [R-Prothioconazole-desthio, R-prothioconazole-desthio] | 0.054 ± 0.031 | 0.33 | type II binding | 0.47 ± 0.05 (≈ 0.147 µg/mL) | 2.3 | 7.5 (≈ 2.34 µg/mL) | 3.2 ± 0.2 (≈ 0.999 µg/mL) | 2.3 | 7.5 (≈ 2.34 µg/mL) |  | 
CCCN(CCOc1c(Cl)cc(Cl)cc1Cl)C(=O)n1ccnc1 [Prochloraz, prochloraz] | 0.027 ± 0.024 | 0.30 | type II binding | 0.25 ± 0.02 (≈ 0.0942 µg/mL) | 2.3 | 4.3 ± 0.8 (≈ 1.62 µg/mL) | 1.9 ± 0.5 (≈ 0.716 µg/mL) | 3.5 | 6.7 ± 0.7 (≈ 2.52 µg/mL) |  | mode of inhibition [1]: non-competitive inhibitors; Induced spectral shift on ligand binding Wavelength ([1]; listed as PRZ): 417 nm to ~421
CC(C)(C)[C@](O)(CCc1ccc(Cl)cc1)Cn1cncn1 [R-Tebuconazole, R-tebuconazole] | 0.065 ± 0.035 | 0.30 | type II binding | 0.12 (≈ 0.0369 µg/mL) |  | 2 ± 0.2 (≈ 0.616 µg/mL) | 1.1 ± 0.3 (≈ 0.339 µg/mL) |  | 5.2 ± 1.3 (≈ 1.6 µg/mL) |  | 
CC1COC(Cn2cncn2)(c2ccc(Oc3ccc(Cl)cc3)cc2Cl)O1 (stereo not shown) [Difenoconazole, difenoconazole] |  |  |  | 0.0147 ± 0.0003 (≈ 0.00597 µg/mL) | 5.2 | 0.243 ± 0.003 (≈ 0.0987 µg/mL) | 0.047 ± 0.009 (≈ 0.0191 µg/mL) | 5 | 0.237 ± 0.003 (≈ 0.0963 µg/mL) |  | 
CC(C)(C)C(O)(CCc1ccc(Cl)cc1)Cn1cncn1 (stereo not shown) [TBZ, tebuconazole] |  |  |  |  |  |  |  |  |  | 417 nm to ~421 | mode of inhibition [1]: non-competitive inhibitors
CC(C)(C)[C@@](O)(CCc1ccc(Cl)cc1)Cn1cncn1 [S-Tebuconazole, S-tebuconazole] | 0.115 ± 0.044 | 0.33 | type II binding | 0.0197 ± 0.0003 (≈ 0.00606 µg/mL) | 8.7 | 0.64 ± 0.11 (≈ 0.197 µg/mL) | 0.073 ± 0.015 (≈ 0.0225 µg/mL) | 11.9 | 0.87 ± 0.06 (≈ 0.268 µg/mL) |  | fold more active than the R enantiomer (MIC50) [4]: 15 fold
OC(Cc1ccccc1Cl)(Cn1nc[nH]c1=S)C1(Cl)CC1 (stereo not shown) [S-Prothioconazole, S-prothioconazole] |  |  |  |  |  |  |  |  |  | 417 (-) nm | MIC50 [2, 7]: 0.077 ± 0.003 µM (≈ 0.0265 µg/mL); MIC50 [3, 8]: 0.93 ± 0.0 µM (≈ 0.32 µg/mL); MIC50 [4, 9]: 0.28 ± 0.02 µM (≈ 0.0964 µg/mL); fold more active than the R enantiomer (MIC50) [4]: 57 fold; fold reduction in susceptibility in Y140H mutant strain ([5]; listed as S-PTZ): 4.3 fold; MIC50 [5, 10]: 1.2 ± 0.2 µM (≈ 0.413 µg/mL)
O=c1c2cc(F)ccc2nc(-n2cncn2)n1-c1ccc(Cl)cc1Cl [Fluquinconazole, fluquinconazole] | 0.015 ± 0.021 | 0.31 | type II binding | 0.17 ± 0.02 (≈ 0.064 µg/mL) | 8.3 | 3.3 ± 0.7 (≈ 1.24 µg/mL) | 0.4 ± 0.05 (≈ 0.15 µg/mL) | 4 | 1.6 ± 0.5 (≈ 0.602 µg/mL) |  | mode of inhibition [1]: non-competitive inhibitors; Induced spectral shift on ligand binding Wavelength ([1]; listed as FQZ): 417 nm to ~421
OC(Cc1ccccc1Cl)(Cn1nc[nH]c1=S)C1(Cl)CC1 (stereo not shown) [R-Prothioconazole, R-prothioconazole] |  |  |  |  |  |  |  |  |  | 417 (-) nm | MIC50 [2, 7]: 5.2 ± 1.3 µM (≈ 1.79 µg/mL); fold reduction in susceptibility in Y140F mutant strain ([3]; listed as R-PTZ): no change; MIC50 [3, 8]: 16 ± 4 µM (≈ 5.51 µg/mL); MIC50 [4, 9]: 16 ± 3 µM (≈ 5.51 µg/mL); fold reduction in susceptibility in Y140H mutant strain ([5]; listed as R-PTZ): 2 fold; MIC50 [5, 10]: 31 ± 4 µM (≈ 10.7 µg/mL)
